Publication PMC6225165, “Design and Synthesis of Novel Dehydroepiandrosterone Analogues as Potent Antiproliferative Agents” (Molecules : A Journal of Synthetic Chemistry and Natural …, 2018)
pIC50: −log10 of the molar value. Where two headings read alike, the source gives them in different places.

Legend:
[1] = tested on: human normal liver (L02) cells; assay: MTT assay on normal cell line L02; type: cell-based; settings: for inhibition at 100 µM / pIC50 / % Growth Inhibition at 100 μM L02: 48 h, MTT; for inhibition at 100 µM / % Growth Inhibition at 100 μM L02: normal cells; for inhibition at 100 µM: read-out: % Growth Inhibition at 100 μM L02; for pIC50: normal cell line
[2] = tested on: HCT116; assay: MTT antiproliferative assay, HCT116; type: cell-based, human; settings: for inhibition at 100 µM / pIC50 / % Growth Inhibition at 100 μM HCT116: 48 h, MTT; for inhibition at 100 µM: read-out: % Growth Inhibition at 100 μM HCT116
Experimental: (§1) The antiproliferative activity of the title compounds against the panel of six different human cancer cell lines, viz. lung (A549), cervix (HeLa), liver (HepG-2), liver (BEL7402), colorectal (HCT116), and breast (MCF-7) cell lines, was evaluated using a standard MTT-based colorimetric assay. All cell lines were obtained from the Key Laboratory of Natural Resources and Functional Molecules of the Changbai Mountain (Yanbian University) and maintained in Dulbecco’s modified Eagle’s medium (DMEM) and RPMI Media 1640 (RPMI1640), supplemented with 10% foetal bovine serum (FBS) at 37 °C in a humidified atmosphere containing 5% CO2.
(§2) Cells were plated in 96-well plates at appropriate densities to ensure exponential growth throughout the experimental period (9 × 10^3 cells per well), and then allowed to adhere for 24 h. Cells were then treated for 48 h with each compound. After 48 h of incubation, 10 μL of MTT solution were added to each well to a final concentration of 2 mg·mL^−1. Plates were then incubated for a further 4 h. After incubation, the MTT solution was removed and 150 μL of DMSO were added to each well for coloration. The plates were shaken vigorously for 10 min at room temperature to ensure complete solubilisation. The optometric density (OD) was read on a microplate reader (EL × 800, BioTek, Highland Park, Winooski, VT, USA) at 492 nm, and the data were subsequently analysed. The percentage of cell growth inhibition was calculated from the following equation:Inhibitory rate (%) = [1 − (ODtreated − ODblank)/(ODcontrol − ODblank)] × 100.
(§3) To obtain the antiproliferative activity of compounds 2a–2w, the compounds were selected in the same way with four serial concentrations (1, 10, 50 and 100 μM) of those compounds. The optometric density (OD) reading was then used to calculate the IC50.

[3] = tested on: A549; assay: MTT antiproliferative assay, A549; type: cell-based, human; settings: 48 h, MTT; for inhibition at 100 µM: read-out: % Growth Inhibition at 100 μM A549
Experimental: as §1, §2, §3

[4] = tested on: HepG-2 cells; assay: Apoptosis analysis by flow cytometry (annexin V-FITC/PI); type: cell-based, human; settings: 48 h, control 13.65%
Experimental: Apoptosis was detected using an Apoptosis Detection Kit (Invitrogen, Eugene, OR, USA). In brief, cells were cultured in […] (5.0 × 10^5 cells per well) and incubated at 37 °C for 12 h. Cells with exponential growth were then incubated with compound 2n at different concentrations (5, 10 and 20 μM). Following 48 h of incubation, the cells were collected, washed twice with PBS and once with 1binding buffer, and then stained with […] of annexin V-FITC and […] of PI (5 mg·mL^−1) in 1 × binding buffer for 30 min at 20 °C in the dark. Apoptotic cells were enumerated using a FACSCalibur flow cytometer with Cell Quest software (Becton–Dickinso, Franklin Lakes, NJ, USA).

[5] = tested on: MCF-7; assay: MTT antiproliferative assay, MCF-7; type: cell-based, human; settings: for inhibition at 100 µM / pIC50 / % Growth Inhibition at 100 μM MCF-7: 48 h, MTT; for inhibition at 100 µM: read-out: % Growth Inhibition at 100 μM MCF-7
Experimental: as §1, §2, §3

[6] = tested on: HepG-2 cells; assay: Cell cycle analysis by flow cytometry (PI); type: cell-based, human; settings: 48 h, control 11.47%
Experimental: HepG-2 cells were plated in […] (5.0 × 10^5 cells per well) and incubated at 37 °C for 12 h. Exponentially growing cells were then incubated with compound 2n at different concentrations (5, 10 and 20 μM). After 48 h, untreated cells (control) or cells treated with compound 2n were centrifuged at 1000 rpm (177 g) for 10 min, and then fixed in 70% ethanol at −20 °C for at least 24 h. The cells were subsequently resuspended in phosphate-buffered saline (PBS) containing 0.1mg mL^−1 RNase A and 5 μg·mL^−1 propidium iodide (PI). The cellular DNA content for the cell cycle distribution analysis was measured by flow cytometry using a FACS Calibur flow cytometer with Cell Quest software (Becton-Dickinson, Franklin Lakes, NJ, USA), plotting at least 30,000 events per sample. The percentage of cells in the G1, S and G2 phases of the cell cycle were determined using the ModFit LT V4.0 software package (Verity Software, Topsham, ME, USA).

[7] = tested on: BEL7402; assay: MTT antiproliferative assay, BEL7402; type: cell-based, human; settings: 48 h, MTT; for inhibition at 100 µM: read-out: % Growth Inhibition at 100 μM BEL7402
Experimental: as §1, §2, §3

[8] = tested on: Hela; assay: MTT antiproliferative assay, Hela; type: cell-based, human; settings: 48 h, MTT; for inhibition at 100 µM: read-out: % Growth Inhibition at 100 μM Hela
Experimental: as §1, §2, §3

[9] = tested on: HepG-2; assay: MTT antiproliferative assay, HepG-2; type: cell-based, human; settings: for inhibition at 100 µM / pIC50 / % Growth Inhibition at 100 μM HepG-2: 48 h, MTT; for inhibition at 100 µM: read-out: % Growth Inhibition at 100 μM HepG-2
Experimental: as §1, §2, §3

[10] = tested on: A549; settings: literature lead, Figure 1; cited from earlier work
[11] = tested on: AGS; settings: literature lead, Figure 1; cited from earlier work
[12] = tested on: HCT116; set-up: method as in PMID 26854375; settings: literature lead, Figure 1; cited from earlier work
[13] = tested on: KB; set-up: method as in PMID 23635011; settings: literature lead, Figure 1; cited from earlier work
[14] = IC50 on normal cells (L02)/IC50 on tumour cells

CC12CCC3C(CC=C4CC(O)CCC43C)C1C/C(=C\c1cn(-c3ccc(I)cc3)nn1)C2=O (centres unmarked) [Compound 2n, (E)-3-hydroxy-16-((1-(4-iodophenyl)-1H-1,2,3-triazol-4-yl)methylene)-10,13-dimethyl-1,3,4,7,8,9,10,11,12,13,15,16-dodecahydro-2H-cyclopenta[a]phenanthren-17(14H)-one]
inhibition at 100 µM ([1]; Homo sapiens, L02): 34.2% | pIC50 ([1]; Homo sapiens, L02): < 4.00 | toxicity in human normal liver (L02) cells ([1]; in words): not toxic | inhibition at 100 µM ([2]; Homo sapiens, HCT-116): 65.5% | pIC50 ([2]; Homo sapiens, HCT-116): 4.51 | Selectivity Index HCT116 [2, 14]: >3.22 | inhibition at 100 µM ([3]; Homo sapiens, A549): 46.8% | pIC50 ([3]; Homo sapiens, A549): < 4.00 | percentage of total apoptotic cells (right quadrants) ([4]; HepG-2, 5.0 µM): 22.24% | percentage of total apoptotic cells (right quadrants) ([4]; HepG-2, 10.0 µM): 27.24% | inhibition at 100 µM ([5]; Homo sapiens, MCF7): 81.3% | pIC50 ([5]; Homo sapiens, MCF7): 5.04 | Selectivity Index MCF-7 [5, 14]: >10.89 | proportion of cells in the G2 phase ([6]; HepG-2, 5.0 µM): 11.14% | proportion of cells in the G2 phase ([6]; HepG-2, 10.0 µM): 0.41% | proportion of cells in the G2 phase ([6]; HepG-2, 20.0 µM): 0.0% | inhibition at 100 µM ([7]; Homo sapiens, Bel-7402): < 5% | pIC50 ([7]; Homo sapiens, Bel-7402): < 4.00 | pIC50 ([8]; Homo sapiens, HeLa): < 4.00 | inhibition at 100 µM ([8]; Homo sapiens): 17.3% | inhibition at 100 µM ([9]; Homo sapiens, HepG2): 83% | pIC50 ([9]; Homo sapiens, HepG2): 5.04 | Selectivity Index HepG-2 [9, 14]: >10.99

COc1cc(-n2cc(/C=C3\CC4C5CC=C6CC(O)CCC6(C)C5CCC4(C)C3=O)nn2)cc(OC)c1OC (centres unmarked) [Compound 2u, (E)-3-hydroxy-10,13-dimethyl-16-((1-(3,4,5-trimethoxyphenyl)-1H-1,2,3-triazol-4-yl)methylene)-1,3,4,7,8,9,10,11,12,13,15,16-dodecahydro-2H-cyclopenta[a]phenanthren17(14H)-one]
inhibition at 100 µM ([1]; Homo sapiens, L02): 36.4% | inhibition at 100 µM ([2]; Homo sapiens, HCT-116): 59.2% | inhibition at 100 µM ([3]; Homo sapiens, A549): 40.3% | inhibition at 100 µM ([5]; Homo sapiens, MCF7): 36.3% | inhibition at 100 µM ([7]; Homo sapiens, Bel-7402): 51.2% | inhibition at 100 µM ([8]; Homo sapiens): 60.5% | inhibition at 100 µM ([9]; Homo sapiens, HepG2): 59.1%

CC12CCC3C(CC=C4CC(O)CCC43C)C1C/C(=C\c1cn(-c3ccc([N+](=O)[O-])cc3)nn1)C2=O (stereo not drawn) [Compound 2v, (E)-3-hydroxy-10,13-dimethyl-16-((1-(4-nitrophenyl)-1H-1,2,3-triazol-4-yl)methylene)1,3,4,7,8,9,10,11,12,13,15,16-dodecahydro-2H-cyclopenta[α]phenan-thren-17(14H)-one]
% Growth Inhibition at 100 μM L02 [1]: 5.5% | % Growth Inhibition at 100 μM HCT116 [2]: 10.2% | % Growth Inhibition at 100 μM A549 [3]: NA (NA: antiproliferative activity <5%) | % Growth Inhibition at 100 μM MCF-7 [5]: NA (NA: antiproliferative activity <5%) | % Growth Inhibition at 100 μM BEL7402 [7]: 13.2% | % Growth Inhibition at 100 μM Hela [8]: NA (NA: antiproliferative activity <5%) | % Growth Inhibition at 100 μM HepG-2 [9]: 12.4%

CC12CCC3C(CC=C4CC(O)CCC43C)C1C/C(=C\c1cn(-c3ccc(C(F)(F)F)cc3)nn1)C2=O (stereo not drawn) [Compound 2w, (E)-3-hydroxy-10,13-dimethyl-16-((1-(4-(trifluoromethyl)phenyl)-1H-1,2,3-triazol4-y)methylene)-1,3,4,7,8,9,10,11,12,13,15,16-dodecahydro-2H-cyclopenta[α] phenanthren-17(14H)-one]
% Growth Inhibition at 100 μM L02 [1]: 57.6% | pIC50 [1]: 4.03 | % Growth Inhibition at 100 μM HCT116 [2]: 75.0% | pIC50 [2]: 4.64 | % Growth Inhibition at 100 μM A549 [3]: 75.2% | pIC50 [3]: 4.14 | % Growth Inhibition at 100 μM MCF-7 [5]: 41.3% | pIC50 [5]: < 4.00 | % Growth Inhibition at 100 μM BEL7402 [7]: 62.2% | pIC50 [7]: 4.03 | % Growth Inhibition at 100 μM Hela [8]: 44.1% | pIC50 [8]: < 4.00 | % Growth Inhibition at 100 μM HepG-2 [9]: 48.3% | pIC50 [9]: < 4.00

COc1ccccc1-n1cc(COC(=O)C23CCC(C)C(C)C2C2=CCC4C5(C)CCC(=O)C(C)(C)C5CCC4(C)C2(C)CC3)nn1 (centres unmarked) [Compound A]
pIC50 [10]: > 7.00

O=c1ccc2cc3ccoc3c(OCc3cn(-c4ccc(C(F)(F)F)cc4)nn3)c2o1 [Compound B]
pIC50 [11]: 5.12

CC1CCC2(C(=O)O)CCC3(C)C(=CCC4C5(C)CC(=Cc6cc(O)ccc6O)C(=O)C(C)(C)C5CCC43C)C2C1C (centres unmarked) [Compound C]
pIC50 [12]: > 7.00

C[C@]12CC[C@H](O)CC1=CCC1C2CC[C@]2(C)C(=O)/C(=C/c3cccc(Cl)c3)CC12 (some centres unmarked) [Compound D]
pIC50 [13]: 6.22

C[C@]12CC[C@H](O)CC1=CC[C@@H]1[C@@H]2CC[C@]2(C)C(=O)CC[C@@H]12 [DHEA, Dehydroepiandrosterone]
inhibition at 100 µM ([1]; Homo sapiens, L02): 44.6% | inhibition at 100 µM ([2]; Homo sapiens, HCT-116): 47.3% | inhibition at 100 µM ([3]; Homo sapiens, A549): 24.8% | inhibition at 100 µM ([5]; Homo sapiens, MCF7): 17.1% | inhibition at 100 µM ([7]; Homo sapiens, Bel-7402): 46.5% | inhibition at 100 µM ([8]; Homo sapiens): 15.7% | inhibition at 100 µM ([9]; Homo sapiens, HepG2): 10.9%
